The test system of one data set is B cells. The experiment in a line: Combination of agents with CDIM binding proteins, cytotoxicity to B cells. The format is cell-based.
For data set [1], the system named is CDIM antigen on human pro-B cell line NALM-6. Nature of the data set: Binding of CDIM binding proteins to CDIM antigen on NALM-6 cells, flow cytometry (MFI). The following applies: 1 hour on ice, non-linear regression curve fit. On the procedure: This example describes how the binding properties of the disclosed antibodies were investigated. The antibodies were prepared by affinity chromatography. In FIG. 6A, the human pro-B cell line, NALM-6, which expresses the CDIM antigen on the cell surface was stained with the series of recombinant IgM antibodies. The antibodies were used to determine the dose response beginning at 20 μg/tube diluted stepwise by 2, to a final concentration at 0.039 μg. Cells were stained in a 100 μl volume in 3% FBS/PBS on ice for 1 hour followed by a subsequent staining with DyLight-488 conjugated anti-human IgM (Jackson Immuno), 1 μg/ml for 20 minutes at 4 C.
Analysis of CDIM binding was performed on FACScan flow cytometer using CellQuest analysis software. Results are shown as raw data points with Mean Fluorescence Intensity (MFI) on Y-axis and concentration of primary antibody (μg/100 μl) on X-axis.
The data were re-analyzed using GraphPad analysis program to fit the results using non-linear regression curve fit. EC50 (μg/100 μl) for each antibody was (a) 10.6 for IGM1, (b) 2.2 for IGM23, (c) 2.2 for IGM34, and (d) 1.7 for IGM36.
On the technique in general: A flow cytometer gives signals particle by particle.

For data set [2], the system named is human pro-B cell line NALM-6. The experiment in a line: Cytotoxicity resulting from cellular binding, propidium iodine uptake. The format is cell-based. The following applies: NALM-6 cells, viability after 1 hour of staining. On the procedure:
This example describes how the cytotoxicity of the CDIM binding proteins was investigated. The human pro-B cell line NALM-6 was stained identically as described in FIG. 6A above. In FIG. 6B, cell killing was evaluated by measuring cell viability after 1 hour of staining. […] Results are shown as raw data with % viability on Y-axis and concentration (μg/100 μl) on X-axis.
Identical results were graphed using GraphPad analysis program and data fit using non-linear regression curve fitting. The EC50 was calculated for each antibody using the same approach described above. EC50 (μg/100 μl) for each antibody was (a) 3.0 for IGM1, (b) 0.6 for IGM 23, (c) 0.6 for IGM34, and (d) 0.3 for IGM36.

[3] abbreviates: combination with CDIM binding proteins.

Like-named read-outs stand apart in the source and are kept apart here.

We go through eight molecules from US9409976B2, “CDIM binding proteins and uses thereof” (IGM BIOSCIENCES, INC., priority 2012, dated 2016).

On to `COc1cc2c(c(OC)c1OC)-c1ccc(OC)c(=O)cc1[C@@H](NC(C)=O)CC2` [Colchisine], for which the “Effect of combination with CDIM binding proteins” value (“Effect of combination” below) in the data set with B cells (setting [3]) is reported as “Synergistic Effect”. Consider `COC(=O)Nc1nc2ccc(C(=O)c3cccs3)cc2[nH]1` [Nocodazole], for which, in the data set with B cells (setting [3]), the “Effect of combination” value is “Synergistic Effect”. With `CC(=O)O[C@H]1C(=O)[C@@]2(C)[C@H]([C@H](OC(=O)c3ccccc3)[C@]3(O)C[C@H](OC(=O)[C@H](O)[C@@H](NC(=O)c4ccccc4)c4ccccc4)C(C)=C1C3(C)C)[C@]1(OC(C)=O)CO[C@@H]1C[C@@H]2O` [Paclitaxel (Taxol), Paclitaxel], the “Effect of combination” value with B cells (setting [3]) was “Possible/Undermined”. In the case of `COc1cc([C@@H]2c3cc4c(cc3[C@@H](O[C@@H]3O[C@@H]5CO[C@@H](C)O[C@H]5[C@H](O)[C@H]3O)[C@H]3COC(=O)[C@H]23)OCO4)cc(OC)c1O` [Etoposide (VP-16), Etoposide], in the data set with B cells (setting [3]), the “Effect of combination” value is “Additive Effect”. `COc1cccc2c1C(=O)c1c(O)c3c(c(O)c1C2=O)C[C@@](O)(C(C)=O)C[C@@H]3O[C@H]1C[C@H](N)[C@H](O)[C@H](C)O1` [Daunorubicin]: the “Effect of combination” value in the data set with B cells is reported as “Additive Effect”. `Nc1ccn([C@@H]2O[C@H](CO)[C@@H](O)[C@@H]2O)c(=O)n1` [Ara-C (Cytarabine), Cytarabine]: in the data set with B cells (setting [3]), the “Effect of combination” value is “Additive Effect”. For the molecule `CC[C@]1(O)C[C@H]2CN(CCc3c([nH]c4ccccc34)[C@@](C(=O)OC)(c3cc4c(cc3OC)N(C=O)[C@H]3[C@@](O)(C(=O)OC)[C@H](OC(C)=O)[C@]5(CC)C=CCN6CC[C@]43[C@@H]65)C2)C1` [Vincristine], the “Effect of combination” value is recorded as “Synergistic Effect” in the data set on B cells (setting [3]) and “enhanced degree of cytotoxicity to B cells when compared to the additive effect of each single agent alone” in the data set on B cells (combination with CDIM binding proteins, listed as vincristine).

B1: IGM1: IgM; heavy chain H1 (SEQ ID NO:28) with lambda light chain (SEQ ID NO:50) (antibody)
heavy: QVQLQQWGAGLLKPSETLSLTCAVYGGSFSGYYWSWIRQPPGKGLEWIGEINHSGSTNYNPSLKSRVTISVDTSKNQFSLKLSSVTAADTAVYYCARGRMAWGASVNFDYWGQGTLVTVSSGSASAPTLFPLVSCENSPSDTSSVAVGCLAQDFLPDSITFSWKYKNNSDISSTRGFPSVLRGGKYAATSQVLLPSKDVMQGTDEHVVCKVQHPNGNKEKNVPLPVIAELPPKVSVFVPPRDGFFGNPRKSKLICQATGFSPRQIQVSWLREGKQVGSGVTTDQVQAEAKESGPTTYKVTSTLTIKESDWLSQSMFTCRVDHRGLTFQQNASSMCVPDQDTAIRVFAIPPSFASIFLTKSTKLTCLVTDLTTYDSVTISWTRQNGEAVKTHTNISESHPNATFSAVGEASICEDDWNSGERFTCTVTHTDLPSPLKQTISRPKGVALHRPDVYLLPPAREQLNLRESATITCLVTGFSPADVFVQWMQRGQPLSPEKYVTSAPMPEPQAPGRYFAHSILTVSEEEWNTGETYTCVVAHEALPNRVTERTVDKSTGKPTLYNVSLVMSDTAGTCY
light: DIQMTQSPSTLSASVGDRVTITCTGTSSDVGGYNYVSWYQQHPGKAPKLMIYGVSNRFSGSKSGNTASLTISGLAAEDEADYYCSSYTSSSTLVVFGGGTKLTVLGQPKAAPSVTLFPPSSEELQANKATLVCLISDFYPGAVTVAWKADSSPVKAGVETTTPSKQSNNKYAASSYLSLTPEQWKSHRSYSCQVTHEGSTVEKTVAPTECS
For B1, the “EC50 of CDIM binding (MFI)” value in data set [1] is listed as 10.6 μg/100 μl. The “EC50 of cytotoxicity (% viability)” value in data set [2] stood at 3.0 μg/100 μl.
